Consider 20 compounds from ChEMBL document CHEMBL1152720, “Discovery and SAR of para-alkylthiophenoxyacetic acids as potent and selective PPARdelta agonists” (Bioorg Med Chem Lett, 2009).

The structures appear in SMILES notation. pEC50: −log10 of the molar value.

The target in assay [1] is T1, Peroxisome proliferator-activated receptor gamma (Homo sapiens, UniProt P37231).
T1 sequence (P37231 whole entry): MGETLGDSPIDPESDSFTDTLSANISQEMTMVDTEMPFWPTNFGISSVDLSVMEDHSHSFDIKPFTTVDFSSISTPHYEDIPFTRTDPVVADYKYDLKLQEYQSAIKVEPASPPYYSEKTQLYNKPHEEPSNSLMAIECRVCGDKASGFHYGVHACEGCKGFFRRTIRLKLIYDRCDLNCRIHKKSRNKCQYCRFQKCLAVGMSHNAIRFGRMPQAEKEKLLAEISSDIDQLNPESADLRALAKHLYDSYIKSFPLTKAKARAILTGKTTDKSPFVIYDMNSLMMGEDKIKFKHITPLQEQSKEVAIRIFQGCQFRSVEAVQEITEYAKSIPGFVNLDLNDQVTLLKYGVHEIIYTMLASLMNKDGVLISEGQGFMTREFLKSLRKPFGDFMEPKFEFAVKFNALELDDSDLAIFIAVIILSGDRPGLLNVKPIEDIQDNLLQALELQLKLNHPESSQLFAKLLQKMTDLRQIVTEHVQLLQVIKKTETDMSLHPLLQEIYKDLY
Put plainly: Activity at PPARgamma.

For assay [2], the target named is T2, Peroxisome proliferator-activated receptor alpha (Homo sapiens, UniProt Q07869).
T2 sequence (Q07869 whole entry): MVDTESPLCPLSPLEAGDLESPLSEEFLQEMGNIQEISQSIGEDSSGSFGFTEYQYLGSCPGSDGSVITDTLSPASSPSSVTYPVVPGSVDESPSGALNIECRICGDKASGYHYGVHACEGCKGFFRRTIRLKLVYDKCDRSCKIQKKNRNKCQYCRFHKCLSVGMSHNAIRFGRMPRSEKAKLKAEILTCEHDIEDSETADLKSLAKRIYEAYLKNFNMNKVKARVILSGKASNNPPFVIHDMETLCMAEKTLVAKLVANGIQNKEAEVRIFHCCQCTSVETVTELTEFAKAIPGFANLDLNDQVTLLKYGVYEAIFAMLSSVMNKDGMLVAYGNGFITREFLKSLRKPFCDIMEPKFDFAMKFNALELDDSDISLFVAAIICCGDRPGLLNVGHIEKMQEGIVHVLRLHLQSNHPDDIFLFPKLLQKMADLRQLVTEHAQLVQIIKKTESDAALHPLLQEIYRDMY
Put plainly: Activity at PPARalpha.

For assay [3], the target named is T3, Peroxisome proliferator-activated receptor delta (Homo sapiens, UniProt Q03181).
T3 sequence (Q03181 whole entry): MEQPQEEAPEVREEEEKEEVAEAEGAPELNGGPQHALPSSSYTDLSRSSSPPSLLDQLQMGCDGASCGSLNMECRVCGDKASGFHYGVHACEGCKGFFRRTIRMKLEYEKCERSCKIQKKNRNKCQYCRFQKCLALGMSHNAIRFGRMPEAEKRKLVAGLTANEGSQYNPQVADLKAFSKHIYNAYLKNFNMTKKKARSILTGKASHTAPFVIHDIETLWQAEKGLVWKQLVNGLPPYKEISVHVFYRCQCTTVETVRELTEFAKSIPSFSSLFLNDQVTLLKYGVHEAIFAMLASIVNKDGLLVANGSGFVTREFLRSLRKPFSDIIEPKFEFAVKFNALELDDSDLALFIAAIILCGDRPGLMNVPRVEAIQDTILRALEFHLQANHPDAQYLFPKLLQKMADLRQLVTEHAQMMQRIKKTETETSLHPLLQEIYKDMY
Put plainly: Agonist activity at human PPARdelta. Type of assay: functional.

With `C=C(COc1ccc(C(F)(F)F)cc1)CSc1ccc(OCC(=O)O)c(C)c1`, the pEC50 in assay [1] and in assay [2] was less than 6.00 in each case.

In the case of `C=C(COc1ccccc1)CSc1ccc(OCC(=O)O)c(C)c1`, the pEC50 in assay [1] and in assay [2] was less than 6.00 in each case.

On to `Cc1cc(SCC(COc2ccc(C(F)(F)F)cc2)=C(F)F)ccc1OCC(=O)O`, for which the pEC50 in assay [3] was 7.16.

Turning to `C=C(COc1ccc(C(F)(F)F)cc1)CSc1ccc(OCC(=O)O)c(C(F)(F)F)c1`, the pEC50 in assay [3], in assay [1] and in assay [2] was less than 6.00 each time.

For `C=C(COc1ccc(Cl)cc1)CSc1ccc(OCC(=O)O)c(C)c1`, the values for the pEC50 in assay [3], in assay [1] and in assay [2] were 7.18, less than 6.00 and less than 6.00, respectively.

Turning to `C=C(COc1ccc(Cl)c(Cl)c1)CSc1ccc(OCC(=O)O)c(C)c1`, the negative-log EC50 (pEC50) was 7.30 in assay [3], less than 6.00 in assay [1] and less than 6.00 in assay [2].

As to `C=C(COc1ccc(C(F)(F)F)cc1)COc1ccc(OCC(=O)O)c(C)c1`, the pEC50 in assay [1] and in assay [2] was less than 6.00 throughout.

As to `C=C(COc1ccc(N(C)C)cc1)CSc1ccc(OCC(=O)O)c(C)c1`, the pEC50 in assay [1] and in assay [2] was less than 6.00 each time.

`CCCC(CCC)(COc1ccc(C(F)(F)F)cc1)CSc1ccc(OCC(=O)O)c(C)c1` showed a pEC50 in assay [3] of 8.07.

In the case of `C=C(CCc1ccc(C(F)(F)F)cc1)CSc1ccc(OCC(=O)O)c(C)c1`, the pEC50 in assay [1] and in assay [2] was less than 6.00 in each case.

With `C=C(COc1ccc(Cl)cc1Cl)CSc1ccc(OCC(=O)O)c(C)c1`, the negative logarithm of the EC50 (pEC50) in assay [1] and in assay [2] was less than 6.00 throughout.

With `C=C(COc1ccc(C(F)(F)F)cc1)CSc1ccc(OCC(=O)O)c(OC)c1`, the pEC50 in assay [3], in assay [1] and in assay [2] was less than 6.00 in each case.

As to `C=C(COc1ccc(C(F)(F)F)cc1)CSc1ccc(OCC(=O)O)c(Cl)c1`, the pEC50 was 7.33 in assay [3], less than 6.00 in assay [1] and less than 6.00 in assay [2].

For `C=C(COc1ccc(Cl)c(C(F)(F)F)c1)CSc1ccc(OCC(=O)O)c(C)c1`, the pEC50 was less than 6.30 in assay [3], less than 6.00 in assay [1] and less than 6.00 in assay [2].

`Cc1cc(SC/C(=C/C#N)COc2ccc(C(F)(F)F)cc2)ccc1OCC(=O)O` gave a pEC50 in assay [3] of 7.45.

Regarding `C=C(CSc1ccc(C(F)(F)F)cc1)CSc1ccc(OCC(=O)O)c(C)c1`, the pEC50 in assay [1] and in assay [2] was less than 6.00 in each case.

Consider `C=C(CNc1ccc(C(F)(F)F)cc1)CSc1ccc(OCC(=O)O)c(C)c1`, for which the pEC50 is less than 6.30 in assay [3], less than 6.00 in assay [1] and less than 6.00 in assay [2].

With `C=C(COc1ccc(OC(F)(F)F)cc1)CSc1ccc(OCC(=O)O)c(C)c1`, the pEC50 in assay [3] is 7.55; in assay [1], less than 6.00; in assay [2], less than 6.00.

As to `C=C(COc1ccc(C(F)(F)F)cc1)CSc1ccc(OCC(=O)O)cc1Cl`, the pEC50 in assay [3] was less than 6.30; in assay [1], less than 6.00; in assay [2], less than 6.00.

On to `C=C(COc1ccc(OC)cc1)CSc1ccc(OCC(=O)O)c(C)c1`, for which the pEC50 in assay [1] and in assay [2] was less than 6.00 each time.

The pEC50 is the EC50 on a negative log10 scale, so that one unit is a factor of ten.
